Assay results from patent US20140023611A1 (priority 2010, published 2014).

Key:
[1] = Stability of compounds in simulated intestinal fluid (SIF); assay type: in vitro ADME; details: simulated intestinal fluid (3 mg/mL pancreatin), incubation time 6 hr, relative to t=0
Outline: (§1)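 Compounds at […] were incubated 3 or 6 hr in USP simulated gastric fluid with 3 mg/mL pepsin or simulated intestinal fluid with 3 mg/mL pancreatin. Remaining compound was quantified by HPLC-UV or HPLC-MS peak area % and reported as percent of the t=0 level in the same medium.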

[2] = Stability of compounds in simulated gastric fluid (SGF); assay type: in vitro ADME; details: simulated gastric fluid (3 mg/mL pepsin), incubation time 6 hr, relative to t=0
Outline: as §1

rat NaP2b (SLC34A2) = target: T1, rat NaP2b (SLC34A2) (Rattus norvegicus, UniProt Q9JJ09); assay: Inhibition of NaP2b-mediated Pi (33P) uptake in transfected HEK293 cells, rat NaP2b; assay type: cell-based; details: 33P Pi uptake, 0.1 mM phosphate, value given as pIC50 range
T1 construct: host or cells: HEK293
T1 sequence (Q9JJ09 1-695): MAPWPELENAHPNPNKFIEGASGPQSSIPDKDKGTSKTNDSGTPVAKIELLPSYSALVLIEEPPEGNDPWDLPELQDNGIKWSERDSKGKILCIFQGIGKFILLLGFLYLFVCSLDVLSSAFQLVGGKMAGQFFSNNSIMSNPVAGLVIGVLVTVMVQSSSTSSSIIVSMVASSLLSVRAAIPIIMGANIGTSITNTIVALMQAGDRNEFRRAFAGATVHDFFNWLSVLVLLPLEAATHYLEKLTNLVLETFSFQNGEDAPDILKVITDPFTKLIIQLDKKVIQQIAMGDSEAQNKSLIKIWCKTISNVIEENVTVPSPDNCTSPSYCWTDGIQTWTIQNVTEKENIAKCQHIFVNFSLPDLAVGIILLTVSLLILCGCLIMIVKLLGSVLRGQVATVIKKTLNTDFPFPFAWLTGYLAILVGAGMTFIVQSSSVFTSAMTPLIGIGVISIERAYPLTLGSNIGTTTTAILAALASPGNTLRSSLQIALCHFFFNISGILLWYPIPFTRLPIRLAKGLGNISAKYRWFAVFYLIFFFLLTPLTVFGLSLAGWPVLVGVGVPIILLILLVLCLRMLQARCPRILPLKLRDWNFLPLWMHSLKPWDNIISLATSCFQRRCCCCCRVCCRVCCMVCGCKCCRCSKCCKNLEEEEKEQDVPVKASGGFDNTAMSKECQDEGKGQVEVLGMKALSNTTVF
Outline: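 The cells transiently expressed NaP2b after Lipofectamine transfection. Each compound was run in duplicate over twelve concentrations, 0.1 nM–30 uM.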

human NaP2b (SLC34A2) = target: T2, human NaP2b (SLC34A2) (Homo sapiens, UniProt O95436); assay: Inhibition of NaP2b-mediated Pi (33P) uptake in transfected HEK293 cells, human NaP2b; assay type: cell-based; details: for IC50: read-out: pIC50 range for human NaP2b (converted)
T2 construct: host or cells: HEK293
T2 sequence (O95436 1-690): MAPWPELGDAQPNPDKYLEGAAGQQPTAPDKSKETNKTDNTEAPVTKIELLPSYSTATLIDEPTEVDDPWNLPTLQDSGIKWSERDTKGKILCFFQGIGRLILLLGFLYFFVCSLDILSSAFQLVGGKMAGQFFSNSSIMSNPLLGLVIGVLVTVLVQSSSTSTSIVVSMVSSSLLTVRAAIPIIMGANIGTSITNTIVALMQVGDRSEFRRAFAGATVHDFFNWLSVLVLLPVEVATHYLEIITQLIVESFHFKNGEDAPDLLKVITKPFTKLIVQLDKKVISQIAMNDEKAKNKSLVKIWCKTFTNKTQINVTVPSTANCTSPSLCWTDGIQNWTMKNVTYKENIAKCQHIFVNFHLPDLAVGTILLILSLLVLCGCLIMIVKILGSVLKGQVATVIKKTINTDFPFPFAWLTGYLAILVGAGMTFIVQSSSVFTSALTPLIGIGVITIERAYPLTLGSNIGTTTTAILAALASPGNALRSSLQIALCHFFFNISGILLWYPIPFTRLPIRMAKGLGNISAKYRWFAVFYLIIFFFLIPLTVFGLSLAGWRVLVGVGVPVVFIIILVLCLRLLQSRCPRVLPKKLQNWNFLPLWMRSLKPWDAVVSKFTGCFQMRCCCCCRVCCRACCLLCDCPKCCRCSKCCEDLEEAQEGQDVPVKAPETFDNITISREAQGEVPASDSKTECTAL
Outline: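 Uptake of 33P-phosphate (100 uM KH2PO4 carrier, sodium vs choline buffer, pH 7.4) measured after 3-30 min at room temperature, with test compound at twelve concentrations from 0.1 nM to 30 uM in duplicate. Cells were HEK293 transfected with mutated human NaP2b (Thr insertion after 37, N39D) and treated with a PiT-silencing agent. pIC50 values from scintillation counts.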

[3] = Determination of compound Cmax and AUC after oral gavage (plasma LC-MS/MS); assay type: in vivo, Sprague-Dawley rats; details: Sprague-Dawley, rat, plasma, po, Structure (I) examples, Table 15, actual oral dose 3-15 mg/kg, plasma 0.5-4 h
Outline: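 Plasma exposure measured by LC-MS/MS after acetonitrile precipitation with internal standard, quantified against a standard curve made in plasma. Compound given orally by gavage to Sprague-Dawley rats at nominal 2.5 or 10 mg/kg, with K2EDTA plasma sampled at 0.5, 1, 2 and 4 h.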

Row | % remaining, SIF [1] | % remaining, SGF [2] [%] | pIC50 range for rat Nap2b (rat NaP2b (SLC34A2)) | pIC50 range for human NaP2b (human NaP2b (SLC34A2); 33P Pi uptake, transfected HEK293 cells, 0.1 mM phosphate, value given as pIC50 range) | AUC [3] [ng·h/mL] | Cmax [3] [ng/mL] | IC50 (rat NaP2b (SLC34A2)) [nM] | IC50 (human NaP2b (SLC34A2)) [nM] | Compound
1 | >80% | >80 | 5.1-6.0 | >6.0 | – | – | – | – | 1-(3-(4-(diethylamino)-2-(4-(3-(trifluoromethyl)benzylcarbamoyl)pyridin-2-yl)phenylcarbamoyl)phenyl)-2,5,8,11,14,17-hexaoxanonadecan-19-yl 2,5,8,11,14,17,20-heptaoxadocosan-22-ylcarbamate [Example 174]
2 | >80% | >80 | – | – | > 50 | < 30 | 1000 to 7940 | < 1000 | O=C(O)c1cccc(SCc2cccc(C(=O)Nc3ccc(Cl)cc3-c3cc(C(=O)NCc4cccc(C(F)(F)F)c4)ccn3)c2)c1 [Example 8.25, 3-(3-(4-chloro-2-(4-(3-(trifluoromethyl)benzylcarbamoyl)pyridin-2-yl)phenylcarbamoyl)benzylthio)benzoic acid]
3 | >80% | >80 | – | – | – | – | 1000 to 7940 | 1000 to 7940 | CCCN(CCC)c1ccc(NC(=O)c2cccc(C(=O)N(C)CCOCCOCCOCCC(=O)O)c2)c(-c2cc(C(=O)NCc3cccc(C(F)(F)F)c3)ccn2)c1 [Example 117]
4 | >80% | >80 | – | – | < 30 | < 10 | < 1000 | 1000 to 7940 | CN(CCCN1CCOCC1)C(=O)c1cccc(C(=O)Nc2ccc(N3CCCCC3)cc2-c2cc(C(=O)N[C@H]3CCCc4ccccc43)ccn2)c1 [Example 126, (S)—N1-methyl-N1-(3-morpholinopropyl)-N3-(4-(piperidin-1-yl)-2-(4-(1,2,3,4-tetrahydronaphthalen-1-ylcarbamoyl)pyridin-2-yl)phenyl)isophthalamide]
5 | 20-40% | >80 | – | – | < 10 | < 10 | < 1000 | < 1000 | CCN(CC)c1ccc(NC(=O)c2cccc(CSCCOCCOCCOCCOCCC(=O)NC(CO)(CO)CO)c2)c(-c2cc(C(=O)N[C@H]3CCCc4ccccc43)ccn2)c1 [Example 158, (S)-2-(5-(diethylamino)-2-(3-(20-hydroxy-19,19-bis(hydroxymethyl)-17-oxo-5,8,11,14-tetraoxa-2-thia-18-azaicosyl)benzamido)phenyl)-N-(1,2,3,4-tetrahydronaphthalen-1-yl)isonicotinamide]
6 | 60-80% | >80 | – | – | – | – | < 1000 | < 1000 | CCN(CC)c1ccc(NC(=O)c2cccc(COCCOCCOCCOCCOCCOCCOC(=O)NCCN3CCOCC3)c2)c(-c2cc(C(=O)NCc3cccc(C(F)(F)F)c3)ccn2)c1 [Example 169, 1-(3-(4-(diethylamino)-2-(4-(3-(trifluoromethyl)benzylcarbamoyl)pyridin-2-yl)phenylcarbamoyl)phenyl)-2,5,8,11,14,17-hexaoxanonadecan-19-yl 2-morpholinoethylcarbamate]
7 | 60-80% | >80 | – | – | – | – | 1000 to 7940 | < 1000 | CCN(CC)c1ccc(NC(=O)c2cccc(COCCOCCOCCOCCOCCOCCOC(=O)N(C)CCN3CCOCC3)c2)c(-c2cc(C(=O)NCc3cccc(C(F)(F)F)c3)ccn2)c1 [Example 170, 1-(3-(4-(diethylamino)-2-(4-(3-(trifluoromethyl)benzylcarbamoyl)pyridin-2-yl)phenylcarbamoyl)phenyl)-2,5,8,11,14,17-hexaoxanonadecan-19-yl methyl(2-morpholinoethyl)carbamate]
8 | >80% | >80 | – | – | – | – | 1000 to 7940 | < 1000 | CCN(CC)c1ccc(NC(=O)c2cccc(COCCOCCOCCOCCOCCOCCOC(=O)N3CCC(CCOCCO)CC3)c2)c(-c2cc(C(=O)NCc3cccc(C(F)(F)F)c3)ccn2)c1 [Example 171, 1-(3-(4-(diethylamino)-2-(4-(3-(trifluoromethyl)benzylcarbamoyl)pyridin-2-yl)phenylcarbamoyl)phenyl)-2,5,8,11,14,17-hexaoxanonadecan-19-yl 4-(2-(2-hydroxyethoxy)ethyl)piperidine-1-carboxylate]
9 | >80% | >80 | – | – | – | – | 1000 to 7940 | < 1000 | CCN(CC)c1ccc(NC(=O)c2cccc(COCCOCCOCCOCCOCCOCCOC(=O)N(CCO)CCO)c2)c(-c2cc(C(=O)NCc3cccc(C(F)(F)F)c3)ccn2)c1 [Example 172, 1-(3-(4-(diethylamino)-2-(4-(3-(trifluoromethyl)benzylcarbamoyl)pyridin-2-yl)phenylcarbamoyl)phenyl)-2,5,8,11,14,17-hexaoxanonadecan-19-yl bis(2-hydroxyethyl)carbamate]
10 | >80% | >80 | – | – | – | – | 1000 to 7940 | 1000 to 7940 | COCCOCCOCCOCCOCCOCCOCCOCCNC(=O)CCOCCOCCOCCOCCCc1cccc(C(=O)Nc2ccc(N3CCCCC3)cc2-c2cc(C(=O)NCc3cccc(C(F)(F)F)c3)ccn2)c1 [Example 275]
11 | >80% | >80 | – | – | – | – | 1000 to 7940 | 1000 to 7940 | CCN(CC)c1ccc(NC(=O)c2cccc(C(=O)N(C)CCN(CCOC)CCOCCOCCOCCOCCOCCOCCOC)c2)c(-c2cc(C(=O)N[C@H]3CCCc4ccccc43)ccn2)c1 [Example 328, (S)—N1-(4-(diethylamino)-2-(4-(1,2,3,4-tetrahydronaphthalen-1-ylcarbamoyl)pyridin-2-yl)phenyl)-N3-(23-(2-methoxyethyl)-2,5,8,11,14,17,20-heptaoxa-23-azapentacosan-25-yl)-N3-methylisophthalamide]

Row | Compound | % remaining, SIF [1] | % remaining, SGF [2] [%] | pIC50 range for rat Nap2b (rat NaP2b (SLC34A2)) | pIC50 range for human NaP2b (human NaP2b (SLC34A2); 33P Pi uptake, transfected HEK293 cells, 0.1 mM phosphate, value given as pIC50 range) | AUC [3] [ng·h/mL] | Cmax [3] [ng/mL] | IC50 (rat NaP2b (SLC34A2)) [nM] | IC50 (human NaP2b (SLC34A2)) [nM]
12 | COCCOCCOCCOCCOCCOCCOCCOCCOCc1cccc(C(=O)Nc2ccc(OC3CCC3)cc2-c2cc(C(=O)NCc3cccc(C(F)(F)F)c3)ccn2)c1 [Example 202, 2-(2-(3-(2,5,8,11,14,17,20,23,26-nonaoxaheptacosyl)benzamido)-5-cyclobutoxyphenyl)-N-(3-(trifluoromethyl)benzyl)isonicotinamide] | >80% | >80 | – | – | – | – | 1000 to 7940 | < 1000
13 | COCCOCCOCCOCCOCCOCCOCCOCCOCc1cccc(C(=O)Nc2ccc(OC3CCC3)cc2-c2cc(C(=O)N[C@H]3CCCc4ccccc43)ccn2)c1 [Example 205, (S)-2-(2-(3-(2,5,8,11,14,17,20,23,26-nonaoxaheptacosyl)benzamido)-5-cyclobutoxyphenyl)-N-(1,2,3,4-tetrahydronaphthalen-1-yl)isonicotinamide] | >80% | >80 | – | – | – | – | < 1000 | < 1000
